Patent US20040116346A1, “Affinity small molecules for the EPO receptor” (priority 2002, published 2004)
Entries after “also recorded” stand apart in the source; their conditions may differ.

Columns and labels:
[1] = test system: cortical neurons isolated from embryonic day 18 rats; experiment: glutamate-induced neuronal death in cultured cortical neurons; type: cell-based, rat; conditions: 24 hours pre-treatment, 300 uM glutamate for 24 hours
Method: Primary cultured cells were used as a model to evaluate the subject small molecule effect on CNS. Glutamate neurotoxicity can be most directly studied using neurons prepared from the brain at the late embryonic stage and subsequently cultured for maturation. To examine the effect of the subject small molecules (E5A24 and E5A29) on glutamate-induced neuronal death, cortical neurons isolated from embryonic day 18 rats, were cultured for 10 days. Subsequently, neurons were treated for 24 hours with or without the subject small molecules, and further exposed to 300 uM glutamate for 24 hours. After glutamate was washed out, the cells were cultured for another 24 hours. During the glutamate challenge and subsequent culture, the subject small molecules were absent. Finally, the cell viability was examined.

[2] = biological target: T1, EPO-R modulating domain (Homo sapiens, UniProt P19235); conditions: cited from earlier work
T1 sequence (P19235 25-508): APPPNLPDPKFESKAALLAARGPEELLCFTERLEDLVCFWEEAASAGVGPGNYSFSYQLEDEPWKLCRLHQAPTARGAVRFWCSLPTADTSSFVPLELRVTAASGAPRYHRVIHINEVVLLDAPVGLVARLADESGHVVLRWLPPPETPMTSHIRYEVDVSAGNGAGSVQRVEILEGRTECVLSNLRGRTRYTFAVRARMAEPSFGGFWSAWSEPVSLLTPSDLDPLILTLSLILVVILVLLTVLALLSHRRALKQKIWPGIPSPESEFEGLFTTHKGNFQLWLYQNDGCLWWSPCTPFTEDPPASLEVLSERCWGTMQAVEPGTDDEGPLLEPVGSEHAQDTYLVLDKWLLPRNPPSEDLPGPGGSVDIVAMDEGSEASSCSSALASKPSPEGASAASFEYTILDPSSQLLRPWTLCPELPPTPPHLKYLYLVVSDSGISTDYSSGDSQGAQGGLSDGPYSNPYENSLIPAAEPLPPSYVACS

[3] = test system: Bcl-xL protein in UT-7 and TF-1 cells; experiment: up-regulation of Bcl-xL expression (immunoprecipitation, western blot); type: cell-based
Method: When the subject compounds were tested for anti-apoptotic effect was evaluated, these antibodies were used: Anti-Bcl-XL/s antibody (Santa Cruz Biotechnology, SC-1041), Anti-Bcl-XL antibody (Santa Cruz Biotechnology, SC8392)
A number of molecules of the subject invention were evaluated in in vitro systems that reflect the condition of cerebral ischemia and metabolic stress. Firstly, it is known that one of the mechanisms by which EPO prevents neuronal apoptosis is by up-regulating the expression levels of Bcl-x1 protein, which is a well-described anti-apoptotic protein. Thus, cells-lines that are known to be EPO responsive (UT-7 and TF-1, used in previous studies) were used as a cellular system to examine the small molecules' anti-apoptotic activity through EPO-R.
The evaluation was performed by starving the cells, stimulating the cells with compounds at appropriate concentrations (or no stimulation for control samples) and immunoprecipitating the cell lysates with antibody specific to both forms (short and long) of Bcl-xL protein. The amount of Bcl-xL (long protein form, known to have anti-apoptotic activity) protein was evaluated by western blot analysis.

[4] = test system: P-19 cells (a neural-like embryonal carcinoma cell line); experiment: anti-apoptotic effect in P-19 cells upon withdrawal of serum; type: cell-based; conditions: treated 24 hours prior to serum withdrawal; serum withdrawn for 48 hours
Method: Experiments were performed according to the described protocol. The anti-apoptotic effect of the subject small molecules was evaluated in P-19 cells (a neural-like embryonal carcinoma cell line) that undergo apoptosis upon withdrawal of serum. Briefly, cells were treated with small molecules for 24 hours prior to serum withdrawal. Serum was withdrawn for 48 hours in the presence or absence of a subject small molecule (EM5 and E5A24). At the end of that period, cell survival was evaluated. […] This Figure is representative of the experiment and of the subject small molecules. The experiments were performed according to literature procedures (Siren et. al., Proc. Nat. Acad. Sci. 98, 4044, 2001). Cell survival was determined according to the protocol described for cellular proliferation.

[5] = test system: Mouse or human bone marrow cells; experiment: Formation of erythroid colonies (CFU-e, BFU-e) from bone marrow in methylcellulose; type: cell-based; conditions: mouse and human bone marrow
Method: Mouse or human bone marrow cells were stimulated in methylcellulose for 7 days (mouse) or 14 days (human) with non-peptide EPO-R modulators. Formation of erythroid colonies was observed. (See FIGS. 6 to 8)
(1) Dilute human bone marrow 1:1 with sterile PBS. (2) Slowly layer bone marrow into 50 ml tubes containing 20 ml of LSM Lymphocyte separation medium (ICN/Cappel—cat #50494). 50 ml bone marrow will yield 2 tubes. (3) Spin tubes at 2000 rpm for 30 minutes with brake off. (4) Slowly take out the middle layer using a 10 ml pipette and transfer into a new 50 ml tube. (5) Add PBS +0.5% BSA +5 mM EDTA to tube for washing. (6) Spin tube for 5 minutes at speed 4 with brake on. (7) Repeat wash step 2 more times. (8) After 3rd wash, resuspend pellet in SF Iscoves' MDM medium. (9) Count by diluting cells in 3% acetic acid. (10) Dilute cells to desired concentration (5×10^5 cells/ml) and seed onto methylcellulose.
(1) Tubes containing 3.0 ml of methylcellulose medium (Stemcell Technology, cat #H4230) supplemented with 50 ng/ml hSCF are prepared. (Alternatively the methylcellulose could be supplemented with 50 ng/ml hSCF, 20 ng/ml of hIL-3 and hIL-6). (2) Compounds or EPO of desired concentrations are added to the tubes. […] Colonies are scored on day twelve.
Bone marrow cells were isolated from mouse femurs. […] The colonies were scored on day seven. […]

[6] = test system: TF-1 and UT-7 cells; experiment: biological testing in cell lines (cell proliferation assay and cell signaling assay); type: cell-based
Excerpt: Compounds identified in the initial screen were further tested for their biological activity in two assays: a cell proliferation assay and a cell signaling assay in TF-1 and UT-7 cells. The hit rate in cell proliferation was 0.16%; hit rate in cell signaling was 0.25%.
At the end of the biological testing in cell lines TF-1 and UT-7, E4, E5, E5 analogs and E6 molecules were some of the compounds identified as showing the best activity.
Compounds identified in the initial screen were further tested for their biological activity in two assays: a cell proliferation assay and a cell signaling assay in TF-1 cells. The hit rate in cell proliferation was 0.16%; hit rate in cell signaling was 0.25%.
At the end of the biological testing in cell line, E4, E5, E5 analog, and E6 molecules were some of the compounds identified as showing the best activity.

[7] = test system: carboplatin-treated 8 week old C57BL mice; experiment: Carboplatin induced anemia model (hematocrit); type: in vivo, mouse
Method: Mice were treated with Carboplatin agent (available from Sigma, used regularly in chemotherapy) and a drop in hematocrit was induced. […] (FIGS. 9-11)
Determination of Effect of Non-peptide EPO-R Binding Small Molecule on Hematocrit in Carboplatin-Induced Anemia in 8 Week C57BI Male Mice
Preparation of injection solutions: Vehicle—Saline with 0.1 mg/mL BSA; Add 30 mg of BSA to 300 mL Saline; Vacuum filter under sterile conditions in laminar flow hood; Aliquot the saline (0.1 mg/mL BSA) solution into mini-sorp tubes. At least 41×7 mL aliquots should be prepared. Place caps on the tubes and store refrigerated at 4° C.;
Carboplatin—Dose of 120 mg/kg: Calculations for single injection given to 36 male mice (8 wks old˜25 g): […]×0.025 kg×36 mice=108 mg; Injections are delivered i.p. in a volume of 0.5 cc/mouse=0.5 cc/mouse×36 mice=18 cc; Carboplatin at 6 mg/mL for 36 mice: 108 mg/18 cc.; 120 mg/20 cc; On day of injection, add 120 mg carboplatin (Sigma #C2538) to 20 cc saline in a 100 cc beaker containing a stirring bar. Cover beaker with parafilm. Mix until the carboplatin has completely dissolved.
11 nmole/kg/mouse/day×0.025 kg×12 mice=3.3 nmoles/day; Injections are delivered i.p. in a volume of 0.5 cc/mouse/day=0.5 cc/mouse/day×12 mice=6 cc/day; non-peptide EPO-R binding small molecule for […]: 3.3 nmoles/6 cc each day: 3.85 nmole/7 cc each day; non-peptide EPO-R binding small molecule aliquot at 2 mM=2 nmole/uL; 3.85 nmole per day in 7 cc (0.55 nmole/mL); Therefore: 3.85 nmole divided by 2 nmole/uL stock=1.925 uL at 2 mM; Prepare in advance at least 10 aliquots of non-peptide EPO-R binding small molecule at 2 mM in small microfuge tubes, each with a volume of 2 uL. Freeze these aliquots; On each day of injections, add 1 thawed aliquot of the non-peptide EPO-R binding small molecule at 2 mM containing a 2 uL volume to a tube containing 7 cc of sterile saline (0.1 mg/mL BSA). […]

## Cc1n[nH]c2c1C(c1ccco1)C1=C(CC(C)(C)CC1=O)N2 (stereo not drawn) [Compound E5A29]
[1]
  cell survival / glutamate induced neuronal death: prevented glutamate induced neuronal death in a dose-responsive manner; also recorded: increased cell survival
  increase of cell survival after glutamate challenge: 60%

## QRVEILEGRTECVLSNLRGRTRY (listed as Homo sapiens) [SEQ ID NO:1]
[2]
  modulation of the activity of the EPO-R: modulation of the activity of the EPO-R in the presence or absence of the ligand

## Cc1cc(NCC2CC2)n2nc(Nc3cc(Cl)ccc3C)nc2n1 [EM5]
[3]; TF-1 cells
  Bcl-xL expression: up-regulation of Bcl-xL expression
[3]; UT-7 cells
  Bcl-xL expression: up-regulation of Bcl-xL expression
[3]; both cell lines (UT-7 and TF-1)
  up-regulation of Bcl-xL protein: induced up-regulation of Bcl-xL protein in a dose-responsive manner
[4]
  cell survival / viability after withdrawal of serum: protect cells from apoptosis; also recorded: increased cell viability

## Cn1ncc(S(=O)Oc2ccccc2)c(Cl)c1=O (stereo not drawn) [Compound E6]
[5]
  CFU-e formation compared with EPO: stimulate CFU-e formation to the same extent as EPO
[6]; cell line (TF-1 cells)
  maximum activity compared to EPO natural hormone: maximum activity comparable to that of the maximum activity of EPO
[6]; cell lines TF-1 and UT-7, in the presence of low levels of EPO
  maximum activity compared to EPO natural hormone: maximum activity comparable to that of the maximum activity of EPO
[7]; compound given i.p.
  cooperative effect with EPO on hematocrit levels: cooperative effect
[7]; mouse, in vivo
  hematocrit levels in animals treated with carboplatin: restore hematocrit levels
